Experimental data published in US10329231B2, “Epoxy compound, method for producing the same, epoxy resin composition, and cured product thereof” (DIC Corporation, priority 2012, dated 2019).

Tests used:
Format in all cases: physicochemical
[1] = Solubility in hexane during purification; settings: reflux then room temperature
Experimental: Oxidative coupling reaction and solvent extraction were performed under the same conditions as in Example 1. Ethyl acetate was distilled off under vacuum, and then hexane was added to the resultant crude product. The mixture was transferred to a SUS container provided with a thermometer, a stirrer, and Dean-Stark trap, and hexane was further added so that the total amount was 5 L, followed by reflux. The hexane solution was cooled to room temperature, and then insoluble substances were filtered off. The solvent of the filtrate was distilled off under vacuum, and the residue was dried at 110° C. for 5 hours to produce 2 g (yield 3%) of a solid containing [1,1′-binaphthalene]-2,2′,7,7′-tetraol as a main component.

[2] = Softening point, ball & ring (B & R) method, JIS K7234; settings: glycerin heating medium
Description: 2) Method for measuring softening point: measured by a ball & ring (B & R) method using glycerin as a heating medium according to JIS K7234.
Apparatus name: ASP-M2 model manufactured by Meitec Corporation

[3] = Melt viscosity at 150° C., ASTM D4287 (ICI viscometer method); parameters: Melt viscosity at 150° C. of epoxy resin: unit not given here; settings: for Melt viscosity at 150° C. of epoxy resin: Table 1
Experimental: 1) Melt viscosity at 150° C.: measured with an apparatus below according to ASTM D4287.
Apparatus name: MODEL CV-1S manufactured by Codex Corporation

Row | SMILES | solubility in hexane [1] | Softening point of epoxy resin [2] [°C] | Melt viscosity at 150° C. of epoxy resin ([3]; 150° C.) | melt viscosity ([3]; ICI viscometer method, measurement temperature 150° C.) [dPa·s] | 150° C. melt viscosity ([3]; 150° C., data given with the product description) [ps]
1 | Oc1ccc2ccc(O)c(-c3c(O)ccc4ccc(O)cc34)c2c1 [1,1′-Binaphthalene]-2,2′,7,7′-tetraol, [1,1′-binaphthalene]-2,2′,7,7′-tetraol] | low solubility |  |  |  | 
2 | c1cc2ccc(OCC3CO3)c(-c3c(OCC4CO4)ccc4ccc(OCC5CO5)cc34)c2cc1OCC1CO1 (stereo not shown) [Example A-1, 2,2′,7,7′-tetraglycidyloxy-[1,1′-binaphthalene]] |  | 61 | 1.1 | 1.1 | 
3 | c1cc2ccc(OCC3CO3)c(Cc3c(OCC4CO4)ccc4ccc(OCC5CO5)cc34)c2cc1OCC1CO1 (stereo not shown) [Example A-2, reference compound] |  | 91 | 4.5 |  | 4.5
